According to patent US8461328B2, “Tricyclic heterocyclic compounds, compositions and methods of use thereof” (Genentech, Inc., priority 2010, dated 2013):
Like-named read-outs stand apart in the source and are kept apart here.

Columns and labels:
Format in all cases: biochemical
JAK1 = molecular target: T1, JAK1 (Homo sapiens, UniProt P23458); assay: JAK1 inhibition (Table 4); settings: read-out: JAK1 Ki
T1 construct: made in house; host or cells: SF9 insect cells (baculovirus)

JAK2 = molecular target: T2, JAK2 (Homo sapiens, UniProt O60674); assay: JAK2 inhibition (Table 4)
T2 construct: made in house; host or cells: SF9 insect cells (baculovirus)
T2 sequence (O60674 812-1132): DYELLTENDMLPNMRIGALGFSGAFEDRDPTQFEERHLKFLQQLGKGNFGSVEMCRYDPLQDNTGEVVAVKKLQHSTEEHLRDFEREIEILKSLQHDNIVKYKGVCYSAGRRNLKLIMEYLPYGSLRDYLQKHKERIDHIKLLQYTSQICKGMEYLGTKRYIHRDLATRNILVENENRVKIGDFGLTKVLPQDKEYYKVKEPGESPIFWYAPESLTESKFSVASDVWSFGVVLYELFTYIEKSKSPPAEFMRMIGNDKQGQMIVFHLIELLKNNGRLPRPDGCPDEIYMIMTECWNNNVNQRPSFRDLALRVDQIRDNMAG

JAK3 = molecular target: T3, JAK3 (Homo sapiens, UniProt P52333); assay: JAK3 inhibition (Table 4); settings: read-out: JAK3 Ki
T3 construct: made in house; host or cells: SF9 insect cells (baculovirus)
T3 sequence (P52333 783-1124): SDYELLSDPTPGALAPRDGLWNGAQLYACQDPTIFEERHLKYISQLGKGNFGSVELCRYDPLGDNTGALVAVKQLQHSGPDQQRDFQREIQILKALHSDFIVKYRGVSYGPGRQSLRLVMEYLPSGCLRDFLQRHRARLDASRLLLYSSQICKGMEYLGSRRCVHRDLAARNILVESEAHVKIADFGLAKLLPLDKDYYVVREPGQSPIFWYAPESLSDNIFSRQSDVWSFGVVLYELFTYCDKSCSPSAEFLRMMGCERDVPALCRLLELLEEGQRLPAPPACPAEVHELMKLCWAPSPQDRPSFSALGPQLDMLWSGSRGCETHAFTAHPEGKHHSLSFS

TYK2 = molecular target: T4, TYK2 (Homo sapiens, UniProt P29597); assay: TYK2 inhibition (Table 4)
T4 construct: made in house; host or cells: SF9 insect cells (baculovirus)
T4 sequence (P29597 873-1187): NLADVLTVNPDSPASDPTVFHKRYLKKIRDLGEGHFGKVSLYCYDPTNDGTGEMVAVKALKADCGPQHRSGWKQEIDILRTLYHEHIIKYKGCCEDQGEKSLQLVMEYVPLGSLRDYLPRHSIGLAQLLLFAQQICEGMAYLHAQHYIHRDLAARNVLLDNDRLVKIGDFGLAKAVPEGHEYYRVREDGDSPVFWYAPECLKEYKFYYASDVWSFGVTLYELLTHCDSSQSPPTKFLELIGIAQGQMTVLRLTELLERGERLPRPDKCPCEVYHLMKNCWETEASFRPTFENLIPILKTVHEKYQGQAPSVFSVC

T1 sequence (P23458 852-1154): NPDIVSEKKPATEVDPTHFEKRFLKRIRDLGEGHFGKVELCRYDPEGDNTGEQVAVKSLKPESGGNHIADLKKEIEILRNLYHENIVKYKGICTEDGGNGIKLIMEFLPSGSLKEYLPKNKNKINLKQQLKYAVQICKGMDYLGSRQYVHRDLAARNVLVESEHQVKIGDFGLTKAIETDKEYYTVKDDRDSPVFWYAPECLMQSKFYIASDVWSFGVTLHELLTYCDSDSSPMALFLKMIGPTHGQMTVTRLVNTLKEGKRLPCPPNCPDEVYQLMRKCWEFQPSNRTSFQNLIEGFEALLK

SMILES | Ki (JAK1) [nM] | Ki (JAK2; read-out: JAK2 Ki) [nM] | Ki (JAK3) [nM] | Ki (TYK2) [nM] | Ki (JAK2; JAK2 Ki) [nM]
Cc1nc2cnc3[nH]ccc3c2n1C(C)C1CCCO1 (single isomer, unassigned) [Example 427, 2-Methyl-1-[1-(tetrahydro-furan-2-yl)-ethyl]-1,6-dihydro-1,3,5,6-tetraaza-as-indacene] | 201 | 167 |  |  | 
C[C@@H](O)c1nc2cnc3[nH]ccc3c2n1C1CCN(CC(=O)N2CCCC2)CC1 [Example 872, 2-{4-[2-((R)-1-Hydroxy-ethyl)-6H-1,3,5,6-tetraaza-as-indacen-1-yl]-piperidin-1-yl}-1-pyrrolidin-1-yl-ethanone] | 164 | 983 | 998 |  | 
O=C(c1nc2cnc3[nH]ccc3c2n1C1CCN(Cc2ccccc2)CC1)N1CCOCC1 [Example 237, [1-(1-Benzyl-piperidin-4-yl)-1,6-dihydro-1,3,5,6-tetraaza-as-indacen-2-yl]-morpholin-4-yl-methanone] | 106 | 494 | 47 |  | 
C[C@@H](O)c1nc2cnc3[nH]ccc3c2n1[C@@H]1CCCN(C(=O)CCn2ccnc2)C1 [Example 797, 1-{(R)-3-[2-((R)-1-Hydroxy-ethyl)-6H-1,3,5,6-tetraaza-as-indacen-1-yl]-piperidin-1-yl}-3-imidazol-1-yl-propan-1-one] | 159 | 1750 | 1630 |  | 
CC(C)(O)c1nc2cnc3[nH]ccc3c2n1C1CCNCC1 [Example 334, 2-(1-Piperidin-4-yl-1,6-dihydro-1,3,5,6-tetraaza-as-indacen-2-yl)-propan-2-ol] | 137 | 2240 | 2550 |  | 
C[C@@H](O)c1nc2cnc3[nH]ccc3c2n1[C@@H]1CCCN(C(=O)Cn2ccnc2)C1 [Example 798, 1-{(R)-3-[2-((R)-1-Hydroxy-ethyl)-6H-1,3,5,6-tetraaza-as-indacen-1-yl]-piperidin-1-yl}-2-imidazol-1-yl-ethanone] | 69 | 2640 | 897 |  | 
CC(C)(O)Cc1nc2cnc3[nH]ccc3c2n1C1CCNCC1 [Example 173, 2-Methyl-1-(1-piperidin-4-yl-1,6-dihydro-1,2,3,5,6-tetraaza-as-indacen-2-yl)-propan-2-ol] | 215 |  | 3900 |  | 
CC(C)(C)OC(=O)N1CC(F)(F)C[C@H]1C(=O)N1CCC(n2cnc3cnc4[nH]ccc4c32)CC1 [Example 243, (S)-4,4-Difluoro-2-[4-(6H-1,3,5,6-tetraaza-as-indacen-1-yl)-piperidine-1-carbonyl]-pyrrolidine-1 carboxylic acid tert-butyl ester] | 357 | 446 |  |  | 
c1ccc(CN2CCC(n3c(C4CCOCC4)nc4cnc5[nH]ccc5c43)CC2)cc1 [Example 154, 1-(1-Benzyl-piperidin-4-yl)-2-(tetrahydro-pyran-4-yl)-1,6-dihydro-1,2,3,5,6-tetraaza-as-indacene] | 15.3 | 28.4 | 9.24 |  | 
c1cc2c(ncc3nc(C4CCCN4)n(C4CCCOC4)c32)[nH]1 (single isomer, unassigned) [Example 666] | 1690 |  | 4010 |  | 
CN1CCC(C(=O)N2CCC(n3cnc4cnc5[nH]ccc5c43)CC2)C1 (racemic) [Example 452, (1-Methyl-pyrrolidin-3-yl)-[4-(6H-1,3,5,6-tetraaza-as-indacen-1-yl)-piperidin-1-yl]-methanone] | 316 | 1170 |  |  | 
Cc1nn(C)c(C)c1CN1CCC(n2c([C@@H](C)O)nc3cnc4[nH]ccc4c32)CC1 [Example 831, (R)-1-{1-[1-(1,3,5-Trimethyl-1H-pyrazol-4-ylmethyl)-piperidin-4-yl]-1,6-dihydro-1,3,5,6-tetraaza-as-indacen-2-yl}-ethanol] | 309 | 2680 | 1000 |  | 
CN1CCCC(C(=O)N2CCC(n3cnc4cnc5[nH]ccc5c43)CC2)C1 (single isomer, unassigned) [Example 454, (1-Methyl-piperidin-3-yl)-[4-(6H-1,3,5,6-tetraaza-as-indacen-1-yl)-piperidin-1-yl]-methanone] | 547 | 1310 |  |  | 
CN1CCCC(C(=O)N2CCC(n3cnc4cnc5[nH]ccc5c43)CC2)C1 (single isomer, unassigned) [Example 453, (1-Methyl-piperidin-3-yl)-[4-(6H-1,3,5,6-tetraaza-as-indacen-1-yl)-piperidin-1-yl]-methanone] | 263 | 1410 |  |  | 
C[C@H](O)c1nc2cnc3[nH]ccc3c2n1[C@@H]1CCCN(C(=O)Cn2ccnc2)C1 [Example 781, 1-{(R)-3-[2-((S)-1-Hydroxy-ethyl)-6H-1,3,5,6-tetraaza-as-indacen-1-yl]-piperidin-1-yl}-2-imidazol-1-yl-ethanone] | 380 | 1490 | 4000 |  | 
Cc1ncc(CN2CCC(n3c([C@@H](C)O)nc4cnc5[nH]ccc5c43)CC2)n1C [Example 830, (R)-1-{1-[1-(2,3-Dimethyl-3H-imidazol-4-ylmethyl)-piperidin-4-yl]-1,6-dihydro-1,3,5,6-tetraaza-as-indacen-2-yl}-ethanol] | 109 | 1730 | 711 |  | 
CC(C)N1CCCC[C@H]1C(=O)N1CCC(n2cnc3cnc4[nH]ccc4c32)CC1 [Example 950, ((S)-1-Isopropyl-piperidin-2-yl)-[4-(6H-1,3,5,6-tetraaza-as-indacen-1-yl)-piperidin-1-yl]-methanone] | 255 | 1420 |  |  | 
COCCN1CCCC[C@H]1C(=O)N1CCC(n2cnc3cnc4[nH]ccc4c32)CC1 [Example 952, [(S)-1-(2-Methoxy-ethyl)-piperidin-2-yl]-[4-(6H-1,3,5,6-tetraaza-as-indacen-1-yl)-piperidin-1-yl]-methanone] | 142 | 628 |  |  | 
CC(O)c1nc2cnc3[nH]ccc3c2n1C1CCCN(C(=O)C2CC(=O)N(C)C2)C1 (centres unmarked) [Example 787, 4-{3-[2-(1-Hydroxy-ethyl)-6H-1,3,5,6-tetraaza-as-indacen-1-yl]-piperidine-1-carbonyl}-1-methyl-pyrrolidin-2-one] | 464 |  | 2490 |  | 
COCCC(=O)N1CCC[C@@H](n2c([C@@H](C)O)nc3cnc4[nH]ccc4c32)C1 [Example 784, 1-{(R)-3-[2-((R)-1-Hydroxy-ethyl)-6H-1,3,5,6-tetraaza-as-indacen-1-yl]-piperidin-1-yl}-3-methoxy-propan-1-one] | 224 |  |  |  | 
CC(O)c1nc2cnc3[nH]ccc3c2n1C1CCCN(C(=O)CC2CCCO2)C1 (centres unmarked) [Example 789, 1-{3-[2-(1-Hydroxy-ethyl)-6H-1,3,5,6-tetraaza-as-indacen-1-yl]-piperidin-1-yl}-2-(tetrahydro-furan-2-yl)-ethanone] | 438 |  |  |  | 
COC1CCC(C(=O)N2CCCC(n3c(C(C)O)nc4cnc5[nH]ccc5c43)C2)CC1 (centres unmarked) [Example 799, {3-[2-(1-Hydroxy-ethyl)-6H-1,3,5,6-tetraaza-as-indacen-1-yl]-piperidin-1-yl}-(4-methoxy-cyclohexyl)-methanone] | 456 |  |  |  | 
CC(C)C(=O)N[C@H]1CC[C@H](n2cnc3cnc4[nH]ccc4c32)CC1 [Example 571, trans N-[4-(6H-1,3,5,6-Tetraaza-as-indacen-1-yl)-cyclohexyl]-isobutyramide] |  | 21.1 | 197 | 101 | 
CC(C)CC(=O)N1CCC(n2cnc3cnc4[nH]ccc4c32)CC1 [Example 83, 3-Methyl-1-[4-(6H-1,3.5,6-tetraaza-as-indacen-1-yl)-piperidin-1-yl]-butan-1-one] |  | 51 | 1230 | 187 | 
CN1CCC[C@@H]1C(=O)N1CCC(n2cnc3cnc4[nH]ccc4c32)CC1 [Example 252, ((R)-1-Methyl-pyrrolidin-2-yl)-[4-(6H-1,3,5,6-tetraaza-as-indacen-1-yl)-piperidin-1-yl]-methanone] |  | 285 | 1280 | 973 | 
c1cc2c(ncc3ncn(C4CCC(N5CCOCC5)CC4)c32)[nH]1 (centres unmarked) [Example 775, 1-(4-Morpholin-4-yl-cyclohexyl)-1,6-dihydro-1,3,5,6-tetraaza-as-indacene] |  | 238 | 910 | 843 | 
N#Cc1ccnc(N2CCC(n3cnc4cnc5[nH]ccc5c43)CC2)c1 [Example 96, 4-(6H-1,3,5,6-Tetraaza-as-indacen-1-yl)-3,4,5,6-tetrahydro-2H-[1,2′]bipyridinyl-4′-carbonitrile] |  | 19.7 | 115 | 90 | 
Cc1nc2cnc3[nH]ccc3c2n1[C@H]1CC[C@H](C(C)(C)O)CC1 [Example 632, 2-[4-(2-Methyl-6H-1,2,3,5,6-tetraaza-as-indacen-1-yl)-cyclohexyl]-propan-2-ol] |  | 3.5 | 36.8 | 13.7 | 
CS(=O)(=O)NCc1nc2cnc3[nH]ccc3c2n1C1CC2CCC1C2 (centres unmarked) [Example 894, N-(1-Bicyclo[2.2.1]hept-2-yl-1,6-dihydro-1,3,5,6-tetraaza-as-indacen-2-ylmethyl)-methanesulfonamide] |  |  | 37.4 | 6.46 | 6.18
C[C@@H](O)c1nc2cnc3[nH]ccc3c2n1C1CCCCC1 [Example 672, (R)-1-(1-Cyclohexyl-1,6-dihydro-1,2,3,5,6-tetraaza-as-indacen-2-yl)-ethanol-d11] |  | 19.8 | 17.2 | 3.01 | 
